Source: US12606544B2, “JAK1 selective kinase inhibitor” (DIZAL (JIANGSU) PHARMACEUTICAL CO., LTD., priority 2019, dated 2026)
Like-named read-outs stand apart in the source and are kept apart here.

What was measured:
JAK1 = target: T1, JAK1 (Homo sapiens, UniProt P23458); assay: Lance Ultra Kinase Assay, recombinant JAK1; type: biochemical; details: 5 mM ATP
T1 construct: purchased Carna Biosciences
Protocol: (§1) Recombinant JAK1, JAK2, JAK3 and TYK2 purchased from Carna Biosciences. The inhibition potency of compounds against JAK1, JAK2, JAK3 and TYK2 was assessed using Lance Ultra Kinase Assay.
(§2) In brief, recombinant kinases were pre-incubated in the presence or absence of compound at room temperature for 15 minutes. The reaction was initiated by the addition of 5 mM ATP and substrate peptide which could be phosphorylated by kinases in the reaction. After 60 minutes incubation, the reaction was stopped by the addition of the detection reagent mix containing EDTA. The fluorescence was measured at 615 nm and 665 nm, respectively with excitation wavelength at 320 nm. The calculated signal ratio of 665 nm/615 nm is proportional to the kinase activity.

JAK2 = target: T2, JAK2 (Homo sapiens, UniProt O60674); assay: Lance Ultra Kinase Assay, recombinant JAK2; type: biochemical; details: 5 mM ATP
T2 construct: purchased Carna Biosciences
T2 sequence (O60674 whole entry): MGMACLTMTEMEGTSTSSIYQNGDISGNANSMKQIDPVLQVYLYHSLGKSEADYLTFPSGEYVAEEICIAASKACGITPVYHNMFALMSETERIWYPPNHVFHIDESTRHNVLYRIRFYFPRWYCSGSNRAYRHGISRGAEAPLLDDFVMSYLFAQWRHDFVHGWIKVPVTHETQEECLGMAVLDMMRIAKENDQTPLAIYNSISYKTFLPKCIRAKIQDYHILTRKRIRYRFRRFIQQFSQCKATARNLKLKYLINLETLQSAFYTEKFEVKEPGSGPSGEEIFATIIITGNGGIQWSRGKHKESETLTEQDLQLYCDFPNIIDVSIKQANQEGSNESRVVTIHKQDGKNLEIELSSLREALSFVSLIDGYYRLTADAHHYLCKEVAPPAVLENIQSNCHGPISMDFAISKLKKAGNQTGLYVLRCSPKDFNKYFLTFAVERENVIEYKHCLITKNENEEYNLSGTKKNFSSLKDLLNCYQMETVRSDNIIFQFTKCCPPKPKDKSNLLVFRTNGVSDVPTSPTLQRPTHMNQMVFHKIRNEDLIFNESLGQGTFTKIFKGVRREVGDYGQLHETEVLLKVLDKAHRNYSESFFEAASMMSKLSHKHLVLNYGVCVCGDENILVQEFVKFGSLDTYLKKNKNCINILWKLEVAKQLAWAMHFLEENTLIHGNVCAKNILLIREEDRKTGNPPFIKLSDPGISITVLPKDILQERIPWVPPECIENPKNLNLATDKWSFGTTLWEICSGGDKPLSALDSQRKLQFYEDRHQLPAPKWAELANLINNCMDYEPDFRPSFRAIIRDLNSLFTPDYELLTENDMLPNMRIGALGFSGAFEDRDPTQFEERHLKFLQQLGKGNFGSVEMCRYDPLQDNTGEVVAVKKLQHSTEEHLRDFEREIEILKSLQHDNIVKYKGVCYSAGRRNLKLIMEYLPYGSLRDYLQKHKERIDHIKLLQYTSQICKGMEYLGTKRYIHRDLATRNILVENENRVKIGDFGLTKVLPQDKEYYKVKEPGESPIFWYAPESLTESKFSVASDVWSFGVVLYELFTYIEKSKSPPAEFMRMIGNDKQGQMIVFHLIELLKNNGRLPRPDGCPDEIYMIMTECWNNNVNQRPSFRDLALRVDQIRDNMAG
Protocol: as §1, §2

JAK3 = target: T3, JAK3 (Homo sapiens, UniProt P52333); assay: Lance Ultra Kinase Assay, recombinant JAK3; type: biochemical; details: 5 mM ATP
T3 construct: purchased Carna Biosciences
T3 sequence (P52333 1-1124): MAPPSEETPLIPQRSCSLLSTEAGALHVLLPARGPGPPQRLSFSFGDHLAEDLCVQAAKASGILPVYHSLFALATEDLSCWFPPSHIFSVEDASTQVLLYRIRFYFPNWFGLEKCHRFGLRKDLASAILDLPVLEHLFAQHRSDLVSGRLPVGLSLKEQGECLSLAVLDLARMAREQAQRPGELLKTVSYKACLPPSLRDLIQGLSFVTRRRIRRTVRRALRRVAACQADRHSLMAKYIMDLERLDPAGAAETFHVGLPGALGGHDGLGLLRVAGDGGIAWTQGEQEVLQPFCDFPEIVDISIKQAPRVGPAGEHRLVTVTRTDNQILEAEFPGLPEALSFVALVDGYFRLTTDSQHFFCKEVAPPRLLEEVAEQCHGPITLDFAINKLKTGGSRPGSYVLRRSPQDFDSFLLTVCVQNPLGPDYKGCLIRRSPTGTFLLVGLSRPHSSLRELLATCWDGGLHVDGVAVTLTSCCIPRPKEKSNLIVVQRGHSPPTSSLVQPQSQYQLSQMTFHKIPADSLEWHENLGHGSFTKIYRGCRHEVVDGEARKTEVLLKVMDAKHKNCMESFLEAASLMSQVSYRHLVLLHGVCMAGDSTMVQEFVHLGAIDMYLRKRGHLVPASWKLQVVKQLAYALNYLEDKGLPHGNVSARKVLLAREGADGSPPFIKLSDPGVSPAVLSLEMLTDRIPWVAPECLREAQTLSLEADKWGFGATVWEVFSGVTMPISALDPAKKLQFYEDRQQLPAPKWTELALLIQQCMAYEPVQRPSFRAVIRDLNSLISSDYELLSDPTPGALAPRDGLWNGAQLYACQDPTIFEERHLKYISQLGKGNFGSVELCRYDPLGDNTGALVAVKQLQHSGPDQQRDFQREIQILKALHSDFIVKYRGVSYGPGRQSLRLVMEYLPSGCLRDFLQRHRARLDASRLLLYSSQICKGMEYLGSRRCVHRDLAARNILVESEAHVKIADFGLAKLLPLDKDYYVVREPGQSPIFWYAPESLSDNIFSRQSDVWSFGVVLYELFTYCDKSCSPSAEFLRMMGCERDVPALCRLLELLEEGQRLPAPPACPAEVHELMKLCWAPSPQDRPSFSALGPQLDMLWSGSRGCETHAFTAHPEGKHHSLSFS
Protocol: as §1, §2

TYK2 = target: T4, TYK2 (Homo sapiens, UniProt P29597); assay: Lance Ultra Kinase Assay, recombinant TYK2; type: biochemical; details: 5 mM ATP
T4 construct: purchased Carna Biosciences
T4 sequence (P29597 whole entry): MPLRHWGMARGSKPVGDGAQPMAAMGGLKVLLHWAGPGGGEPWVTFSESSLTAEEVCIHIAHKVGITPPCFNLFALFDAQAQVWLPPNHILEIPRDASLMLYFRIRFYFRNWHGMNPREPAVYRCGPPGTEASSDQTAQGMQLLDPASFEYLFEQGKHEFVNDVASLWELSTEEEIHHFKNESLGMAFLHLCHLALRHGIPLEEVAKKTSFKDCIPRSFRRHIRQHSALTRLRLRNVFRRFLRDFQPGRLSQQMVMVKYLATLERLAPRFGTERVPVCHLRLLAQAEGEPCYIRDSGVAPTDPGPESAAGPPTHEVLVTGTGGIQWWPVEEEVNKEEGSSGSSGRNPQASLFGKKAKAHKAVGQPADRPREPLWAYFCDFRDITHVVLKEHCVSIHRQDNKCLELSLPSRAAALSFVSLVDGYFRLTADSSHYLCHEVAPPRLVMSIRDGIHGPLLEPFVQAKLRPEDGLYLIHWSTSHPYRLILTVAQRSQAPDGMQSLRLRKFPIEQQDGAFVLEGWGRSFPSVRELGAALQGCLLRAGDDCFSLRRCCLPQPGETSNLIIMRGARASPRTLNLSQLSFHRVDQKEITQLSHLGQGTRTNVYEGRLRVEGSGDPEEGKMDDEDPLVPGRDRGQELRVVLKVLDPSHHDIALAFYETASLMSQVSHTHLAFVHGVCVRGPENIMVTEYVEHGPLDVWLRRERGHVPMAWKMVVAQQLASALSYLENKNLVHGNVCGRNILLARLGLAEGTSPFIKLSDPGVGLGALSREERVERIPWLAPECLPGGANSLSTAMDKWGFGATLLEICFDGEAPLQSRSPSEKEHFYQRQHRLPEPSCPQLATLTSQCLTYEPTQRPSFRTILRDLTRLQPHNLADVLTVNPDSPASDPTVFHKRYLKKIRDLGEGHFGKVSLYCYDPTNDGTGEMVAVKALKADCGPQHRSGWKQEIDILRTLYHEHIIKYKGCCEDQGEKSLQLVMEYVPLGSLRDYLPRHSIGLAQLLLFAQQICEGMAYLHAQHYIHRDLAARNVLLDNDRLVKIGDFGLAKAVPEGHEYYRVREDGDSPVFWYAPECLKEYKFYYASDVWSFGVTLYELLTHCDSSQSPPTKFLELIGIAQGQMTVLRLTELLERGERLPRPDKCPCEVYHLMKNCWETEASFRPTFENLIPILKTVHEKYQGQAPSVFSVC
Protocol: as §1, §2

phosphorylation of STAT6 = assay: Cellular p-STAT6 assay, IL-13 stimulated THP-1 cells, flow cytometry; type: cell-based; details: IL-13 10 ng/ml, read-out: pSTAT6 IC50
Protocol: To detect phosphorylated STAT6 (pSTAT6), THP-1 cells were harvested by centrifugation at 250 g for 5 min and resuspended in assay medium (RPMI1640+10% FBS) to 2×10^5 cells/well. Test compounds were applied to assay plates in serial dilution from 1 μM to 0.3 nM in DMSO. THP-1 cells were incubated with serial diluted compounds for 60 min at room temperature, followed by stimulation of interleukin (IL-13, 10 ng/ml) for 30 min, fixed in Cytofix buffer (BD Biosciences), and permeabilized in 90% methanol on ice. PE anti-pSTAT6 (BD Biosciences) antibodies were stained for 60 min at room temperature before being analyzed by flow cytometry. In the assay the compounds were thus diluted and dose-response curves for inhibition of the signal determine the IC50 for the compounds.

[1] = Metabolic stability in rat hepatocytes; type: in vitro ADME; details: 1 μM compound, male rat hepatocytes
Protocol: (§3) Rat hepatocytes in male gender and human liver microsome were obtained from commercial vendors (e.g., BioreclamationIVT) and stored at −150° C. prior to use.
For metabolic stability assay with rat heptatocytes, vials of cryopreserved hepatocytes or microsome were removed from storage, ensured that vials remain at cryogenic temperatures. 1 μM of each test compound (in Acetonitrile; 0.01% DMSO) was incubated with 250 μL of hepatocyte cells (1×10^6 cells/ml) in a 96 deep well plate. […] 40 μL of supernatant was diluted to 200 μL with pure water and analyzed using LC-MS/MS.
In vitro hepatocyte clearance was estimated based on determination of elimination half-life (T1/2) of compounds disappearance from their initial concentrations. Peak area ratios of each compound (test or control) to IS was calculated. Ln (% Control) versus Incubation Time (min) curve was plotted, and the slope of a linear fitting line was calculated. Drug elimination rate constant k (min−1), T1/2 (min), and in vitro intrinsic clearance CLint (μL/min/E6) was calculated according to the following equations: k=−slope T1/2=0.693/k CLint=k/Chep Where Chep (cells×μL^−1) is the cell concentration in the incubation system.

[2] = Metabolic stability in human liver microsome; type: in vitro ADME; details: 1 mg/mL microsomes, NADPH; for microsomal CLint at 1 μM: human, pooled human liver microsomes, pH 7.4, 1 μM compound
Protocol: as §3
For metabolic stability assay with human liver microsome, 1 μM of each test compound was incubated with 1 mg/mL of microsomes (Pooled HLM with 20 mg/ml protein cone) at 37° C. in 250 μL of buffer (100 mM phosphate buffer, pH-7.4) containing 1 mM NADPH solution. […] was quenched with 5 volumes chilled acetonitrile at different time points 0, 0.5, 5, 10, 15, 20 and 30 min in a fresh 96 well plate. The quench plate was centrifuged at 4000 rpm for 15 min. 40 μL of supernatant was diluted to 200 μL with pure water and analyzed using LC-MS/MS. […]

[3] = Homo sapiens, THP-1, THP-1 cells

T1 sequence (P23458 whole entry): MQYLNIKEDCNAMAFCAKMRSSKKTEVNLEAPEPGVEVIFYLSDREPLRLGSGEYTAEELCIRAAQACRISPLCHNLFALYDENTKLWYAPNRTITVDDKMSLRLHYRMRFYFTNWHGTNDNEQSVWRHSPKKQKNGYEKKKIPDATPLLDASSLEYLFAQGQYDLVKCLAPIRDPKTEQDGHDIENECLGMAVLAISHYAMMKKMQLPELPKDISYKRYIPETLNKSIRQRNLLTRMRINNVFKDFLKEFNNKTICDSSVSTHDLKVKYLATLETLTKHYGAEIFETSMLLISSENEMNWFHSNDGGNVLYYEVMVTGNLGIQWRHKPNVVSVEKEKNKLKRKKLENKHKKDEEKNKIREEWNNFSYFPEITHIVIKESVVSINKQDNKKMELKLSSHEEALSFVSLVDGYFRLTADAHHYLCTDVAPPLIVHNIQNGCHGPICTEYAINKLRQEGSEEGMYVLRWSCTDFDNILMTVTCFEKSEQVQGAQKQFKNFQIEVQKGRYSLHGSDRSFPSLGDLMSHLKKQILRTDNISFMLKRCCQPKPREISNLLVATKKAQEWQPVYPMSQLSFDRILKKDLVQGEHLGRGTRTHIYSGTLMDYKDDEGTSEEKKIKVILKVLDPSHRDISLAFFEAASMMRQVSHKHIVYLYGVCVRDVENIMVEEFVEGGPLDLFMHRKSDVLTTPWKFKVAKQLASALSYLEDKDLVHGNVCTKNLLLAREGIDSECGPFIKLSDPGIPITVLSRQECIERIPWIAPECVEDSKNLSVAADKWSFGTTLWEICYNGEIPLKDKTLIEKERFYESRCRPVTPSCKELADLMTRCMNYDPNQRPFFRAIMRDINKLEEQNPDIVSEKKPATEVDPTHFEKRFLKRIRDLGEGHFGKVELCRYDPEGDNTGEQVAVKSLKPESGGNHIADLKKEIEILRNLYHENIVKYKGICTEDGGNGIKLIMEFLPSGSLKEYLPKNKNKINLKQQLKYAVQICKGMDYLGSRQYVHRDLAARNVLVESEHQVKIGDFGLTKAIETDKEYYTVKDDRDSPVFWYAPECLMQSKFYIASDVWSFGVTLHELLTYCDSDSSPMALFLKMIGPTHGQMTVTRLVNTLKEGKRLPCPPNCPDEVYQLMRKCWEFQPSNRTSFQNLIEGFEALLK

| Compound | IC50 (JAK1) | IC50 (JAK2) | IC50 (JAK3) | IC50 (TYK2) | IC50 (phosphorylation of STAT6; [3]) | Rat Hepatocyte CLint [1] | microsomal CLint at 1 μM [2] | IC50 (phosphorylation of STAT6; THP-1 cells) | Human liver microsome CLint ([2]; 1 μM compound) |
| --- | --- | --- | --- | --- | --- | --- | --- | --- | --- |
| COC[C@H](C(=O)Nc1cccc2c(-c3nc(Nc4cnn(C5CCOC5)c4)ncc3F)c[nH]c12)N1CCN(C)CC1 (single isomer, unassigned; isomer 1) [Example 30] | 0.15 nM | 95 nM | > 10000 nM | 1180 nM | 10.3 nM | 4.4 μL/min/10^6 cells | 13.5 µL/min/mg | – | – |
| COC[C@H](C(=O)Nc1cccc2c(-c3nc(Nc4cnn(C5CCOC5)c4)ncc3F)c[nH]c12)N1CCN(C)CC1 (single isomer, unassigned; isomer 2) [Example 33] | 0.14 nM | 110 nM | > 10000 nM | 2170 nM | – | 6.8 μL/min/10^6 cells | – | 11.1 nM | 11.1 µL/min/mg |
| COC[C@H](C(=O)Nc1cccc2c(-c3nc(Nc4ccc(CO)nc4)ncc3F)c[nH]c12)N1CCN(C)CC1 [Example 1, (R)-N-(3-(5-fluoro-2-((6-(hydroxymethyl)pyridin-3-yl)amino)pyrimidin-4-yl)-1H-indol-7-yl)-3-methoxy-2-(4-methylpiperazin-1-yl)propanamide] | 0.13 nM | 85 nM | > 10000 nM | 644 nM | 4 nM | 68.8 μL/min/10^6 cells | 4.9 µL/min/mg | – | – |
| COC[C@H](C(=O)Nc1cccc2c(-c3nc(Nc4ccnc(C(=O)OC)c4)ncc3F)c[nH]c12)N1CCN(C)CC1 [Example 4, Methyl-(R)-4-((5-fluoro-4-(7-(3-methoxy-2-(4-methylpiperazin-1-yl)propanamido)-1H-indol-3-yl)pyrimidin-2-yl)amino)picolinate] | 0.26 nM | 81 nM | > 10000 nM | 1830 nM | 5.1 nM | >300 μL/min/10^6 cells | 14.4 µL/min/mg | – | – |
| COC[C@H](C(=O)Nc1cccc2c(-c3nc(Nc4ccc(C(=O)OC)nc4)ncc3F)c[nH]c12)N1CCN(C)CC1 [Example 12, methyl (R)-5-((5-fluoro-4-(7-(3-methoxy-2-(4-methylpiperazin-1-yl)propanamido)-1H-indol-3-yl)pyrimidin-2-yl)amino)picolinate] | 0.17 nM | 469 nM | > 10000 nM | 3770 nM | 7.2 nM | 226.4 μL/min/10^6 cells | > 300 µL/min/mg | – | – |
| COC[C@H](C(=O)Nc1cccc2c(-c3nc(Nc4ccc5cn[nH]c5c4)ncc3F)c[nH]c12)N1CCN(C)CC1 [Example 13, (R)-N-(3-(2-((1H-indazol-6-yl)amino)-5-fluoropyrimidin-4-yl)-1H-indol-7-yl)-3-methoxy-2-(4-methylpiperazin-1-yl)propanamide] | 0.33 nM | 88 nM | 8950 nM | 1390 nM | 7.2 nM | 5.5 μL/min/10^6 cells | 83.1 µL/min/mg | – | – |
| COC[C@H](C(=O)Nc1cccc2c(-c3nc(Nc4ccnc(CCC(=O)OC)c4)ncc3F)c[nH]c12)N1CCN(C)CC1 [Example 15, methyl (R)-3-(4-((5-fluoro-4-(7-(3-methoxy-2-(4-methylpiperazin-1-yl)propanamido)-1H-indol-3-yl)pyrimidin-2-yl)amino)pyridin-2-yl)propanoate] | 0.19 nM | 20 nM | > 10000 nM | 1440 nM | 7.3 nM | 68.0 μL/min/10^6 cells | > 300 µL/min/mg | – | – |
| COC[C@H](C(=O)Nc1cccc2c(-c3nc(Nc4ccc(OCCO)nc4)ncc3F)c[nH]c12)N1CCN(C)CC1 [Example 16, (R)-N-(3-(5-fluoro-2-((6-(2-hydroxyethoxy)pyridin-3-yl)amino)pyrimidin-4-yl)-1H-indol-7-yl)-3-methoxy-2-(4-methylpiperazin-1-yl)propanamide] | 0.36 nM | 138 nM | > 10000 nM | 2000 nM | 7.4 nM | 42.1 μL/min/10^6 cells | 3 µL/min/mg | – | – |
| COC[C@H](C(=O)Nc1cccc2c(-c3nc(Nc4ccc5c(C)n[nH]c5c4)ncc3F)c[nH]c12)N1CCN(C)CC1 [Example 17, (R)-N-(3-(5-fluoro-2-((3-methyl-1H-indazol-6-yl)amino)pyrimidin-4-yl)-1H-indol-7-yl)-3-methoxy-2-(4-methylpiperazin-1-yl)propanamide] | 0.18 nM | 43 nM | 7740 nM | 1210 nM | 7.6 nM | 4.5 μL/min/10^6 cells | 57.2 µL/min/mg | – | – |
| COCCOc1ccc(Nc2ncc(F)c(-c3c[nH]c4c(NC(=O)[C@@H](COC)N5CCN(C)CC5)cccc34)n2)cn1 [Example 65, (R)-N-(3-(5-fluoro-2-((6-(2-methoxyethoxy)pyridin-3-yl)amino)pyrimidin-4-yl)-1H-indol-7-yl)-3-methoxy-2-(4-methylpiperazin-1-yl)propanamide] | 0.32 nM | 198 nM | > 10000 nM | 1260 nM | 18.8 nM | – | – | – | – |
| CNC(=O)COc1cncc(Nc2ncc(F)c(-c3c[nH]c4c(NC(=O)[C@@H](COC)N5CCN(C)CC5)cccc34)n2)c1 [Example 68, (R)-N-(3-(5-fluoro-2-((5-(2-(methylamino)-2-oxoethoxy)pyridin-3-yl)amino)pyrimidin-4-yl)-1H-indol-7-yl)-3-methoxy-2-(4-methylpiperazin-1-yl)propanamide] | 0.22 nM | 71 nM | 5360 nM | 1230 nM | 20.9 nM | – | – | – | – |
